Laboratory results from patent US11414387B2, “Oxoacridinyl acetic acid derivatives and methods of use” (Stingthera, Inc., priority 2017, dated 2022).
pIC50: −log10 of the molar value.

Assays:
hSTING-CTD = hSTING-CTD (Homo sapiens (Human), UniProt Q86WV6); test: Human STING protein FP competition concentration response assay; type: binding
Experimental: A validated STING ligand, such as c-di-GMP, which is labeled with a read-out signal (e.g., a fluorescence signal such as fluorescein), is mixed with STING-CTD (e.g., mouse STING-CTD or human STING-CTD) with or without the presence of a compound of the present application. Changes in the read-out signal are measured (e.g., by fluorescence anisotropy) to determine the binding of the compound to STING-CTD.
Fluorescein labeled c-di-GMP, a validated STING ligand, was mixed with recombinant hSTING-CTD in a homogenous assay format with or without the presence of a compound of the present application (titrated) in PBS in black 384-well plates (10 μL per well). The fluorescence anisotropy was determined on a PerkinElmer EnVisions multi-mode plate reader. The plate can be read immediately after mixing the reagents or after a few hours without change of signals.
• 1) hSTING (Supplier: HDB) • 2) 2′-Fluo-AHC-c-di GMP (BIOLOG #F009) • 3) 2′3′-cGAMP (BIOLOG #C161) • 4) DMXAA (InvivoGen #tlrl-dmx) • 5) DMSO (Sigma, #D5879-100 mL) • 6) 10×PBS(HDB #MCP-020) • 7) Assay plate, 384-well black plate, solid black bottom (Greiner #784076) • 8) Compound dilution intermediate plate, 384 LDV plate (Labcyte #LP-0200) • 9) Liquid handler, ECHO550 (Labcyte) • 10) Liquid handler, Bravo (Aglient) • 11) Reader, Envision (PerkinElmer) • 12) Centrifuge (Eppendorf) • 13) Multichannel Pipette (Raining) • 14) 10 ml Reservoir (Corning) • 15) 15 ml centrifuge tube (Corning) • 16) Adhesive Plate seals (BioRad) Compound Preparation • a) Containers of each compound were centrifuged at 1000 rpm for 5 min. • b) Compounds were dissolved in DMSO at 30 mM. • c) Compounds were sufficiently vortexed, and centrifuged at 1000 rpm for 1 min. • d) 16 uL of the compound solution was transferred into a LDV Compound Plate. • e) 2-fold serial dilutions of the compound solution were made with DMSO, and 14 concentrations were made in the 384-well LDV Compound Plate. • f) The LDV plate was spun at 1000 rpm for 60 sec and sealed with foil (stored at −20° C. if not used immediately). • g) 335 nL of each compound from the LDV Compound Plate was transferred to Assay Plate (ECHO550). Probe Preparation • a) 200 uM probe stock (2′-Fluo-AHC-c-diGMP) was diluted by ddH2O to 6 uM working concentration. • b) 10-12 uL 6 uM working solution of probe was transferred into the LDV plate. • c) 50 nL per well 6 uM working solution of probe was transferred from the LDV plate to each well of the empty Assay Plate (Greiner 784076) by ECHO550 Buffer mode. • d) Probe final concentration was 30 nM when assay system was 10 uL. • e) The Assay Plate was spun at 1000 rpm for 1 min. Compound Addition • a) After the LDV Compound Plate was prepared, 335 nL compound (ECHO550 DMSO mode) was transferred from the LDV Compound Plate into the Assay Plate (Greiner 784076) containing 50 nL probe in each well according to the Assay Plate layout. • b) DMSO final concentration was 3.35% when assay system was 10 uL. • c) The Assay Plate was spun at 1000 rpm for 1 min. Protein Addition • a) Aliquot of hSTING protein was thawed on ice, briefly to generate uniform solution. • b) 55 uM stock protein was diluted in 1×PBS assay buffer to generate 10 uM final solutions. • c) For test compound and ZPE wells, 10 μL per well of 10 uM protein solutions was added into the Assay Plate containing both the probe and test compounds or DMSO using multichannel pipette. • d) For HPE wells, 10 μL/well of 1×PBS assay buffer instead of protein was added into the Assay Plate containing both the probe and DMSO using multichannel pipette. • e) The Assay Plate was spun at 1000 rpm for Imin. • f) The Assay Plate was incubated at r.t. for 10-20 min.
The EnVision plate reader was used to record the FA value of each well immediately after mixing the reagents or after a few hours without change of signals.
The raw data and calculated data (Fluorescence anisotropy (FA)) was exported from the EnVision reader. […]

hSTING-WT = hSTING-WT (Homo sapiens (Human), UniProt Q86WV6, H232R); test: Radiometric filtration binding competition assay, hSTING-WT
Chain of hSTING-WT (Q86WV6 140-379 H232R): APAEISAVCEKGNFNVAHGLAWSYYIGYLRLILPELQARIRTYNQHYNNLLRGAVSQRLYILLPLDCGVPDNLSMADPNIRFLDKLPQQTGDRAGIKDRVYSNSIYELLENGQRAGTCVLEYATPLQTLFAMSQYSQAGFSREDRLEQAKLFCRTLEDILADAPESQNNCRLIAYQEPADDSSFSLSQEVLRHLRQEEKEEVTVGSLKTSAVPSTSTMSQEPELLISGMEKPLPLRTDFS
Experimental: A radiometric filtration binding competition assay was performed to quantify the binding affinity of compounds of the present application for the human or mouse STING protein, or associated HAQ human isoform. […] The resulting dose response was fit by non-linear regression to determine an IC50 value, from which a Ki value for each compound was extrapolated.
The resulting complexes were then filtered, dried, and scintillation fluid was added and the remaining radio signal was measured to determine the degree of compound ligand inhibition. This assay format was optimized for both the WT and HAQ isoforms of the human protein and the mouse orthologue protein.
Probe Concentration: Minimum concentration that achieved max assay window • g. Assay Format: Scintillation Proximity Bead or Filtration Binding Plate • h. […] Assay incubation times for successive incubation steps
WT-hSWAT: WT_FBA_HIS-SUMO-hSWAT IC50 (μM) (“WT”=Wild-type); HAQ-hSWAT: HAQ_FBA_HIS-SUMO-hSWAT IC50 (μM) (“HAQ”=human HAQ allele of STING protein); and WT-mSWAT: MOUSE_FBA_HIS-SUMO-mnSWAT IC50 (μM) which is the mouse isoform of STING protein.

mSTING-R232 = mSTING-R232 (Mus musculus, UniProt Q3TBT3); test: STING differential scanning fluorimetry (DSF) assay, mouse STING; settings: net shift in melting temperature
hSTING-R232 = hSTING-R232 (Homo sapiens (Human), UniProt Q86WV6, H232R); test: STING differential scanning fluorimetry (DSF) assay, WT human STING; settings: WT (R232) human STING aa140-379, net shift in melting temperature
Chain of hSTING-R232 (Q86WV6 140-379 H232R): as above
Experimental: A STING DSF assay was performed to determine protein thermostability shift in response to small molecule ligand binding. A STING thermostability shift assay based on differential scanning fluorimetry was used to measure (1) the net shift in melting temperature (ΔTm)between the apo and ligand-bound states of the STING protein and (2) the concentration of the thermal denaturation transition (EC50) as a surrogate measure of binding affinity (K). […] Protein in assay buffer was transferred to a 384 well plate and incubated with the hydrophobic fluorescent dye SYBR Orange. A temperature ramp was applied to the plate and the resulting dye fluorescence was plotted as a function of temperature. The first derivative of this function (dF/dT) was then used to extrapolate the melting temperature of the protein at various concentrations of compound and determine the thermal denaturation profile of a protein/compound complex.
• 1. Protein construct (affinity tag removal vs SUMO-fusion construct) • 2. Protein concentration • 3. Dye concentration • 4. Buffer • 5. Thermal ramp velocity • 6. DMSO tolerance • 7. Compound titration parameters • 8. […] 5 μM purified Target STING Protein • 3. 8 μM Sypro Orange Dye • 4. Buffer: 100 mM NaCl, 30 mM HEPES, pH 7.5 • 5. Thermal Ramp: 0.5° C./min • 6. <1% DMSO • 7. 11 point, 2 fold dilution, duplicate, 300 μM high concentrations • 8.

STING protein = STING protein (Homo sapiens (Human), UniProt Q86WV6, H232R); test: Cell based reporter assay of IRF activation (IRF-luciferase), THP1-dual-KI R232; settings: read-out: THP1-dual-KI R232_IRF(Luciferase)_Activity Maximum measured (%)
Chain of STING protein (Q86WV6 whole entry H232R): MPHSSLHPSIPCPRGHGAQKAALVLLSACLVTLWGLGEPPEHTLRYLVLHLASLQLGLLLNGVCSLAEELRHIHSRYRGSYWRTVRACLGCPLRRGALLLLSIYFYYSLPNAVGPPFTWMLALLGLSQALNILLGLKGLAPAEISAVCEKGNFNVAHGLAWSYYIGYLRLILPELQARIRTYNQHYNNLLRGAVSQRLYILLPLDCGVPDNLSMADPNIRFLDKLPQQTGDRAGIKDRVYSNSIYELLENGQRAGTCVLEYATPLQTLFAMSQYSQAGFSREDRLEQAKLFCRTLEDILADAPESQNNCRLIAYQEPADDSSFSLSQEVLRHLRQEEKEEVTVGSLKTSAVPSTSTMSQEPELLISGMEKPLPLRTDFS
Source text: Briefly, THP-1 monocytes were transfected and selected for stable integration of 2 reporter constructs. Clones incorporating stably integrated vectors were further selected by antibiotic resistance to blastocidin and zeocin. The reporter constructs included: (1) firefly luciferase reporter gene under the control of an ISG54 promoter fused to five interferon (IFN)-stimulated response elements to measure IRF transcription factor binding activity and (2) secreted embryonic alkaline phosphatase reporter gene under transcription control of an IFN-beta minimal promoter fused to 5 copies of the NFkB consensus transcriptional response element and 3 copies of the c-Rel binding site.
The resulting THP-1 cell line was further modified to incorporate 3 amino acid point mutations (H71R A230G Q293R). This modification of the native TMEM173 gene in THP-1 cells (HAQ) was designed to produce a cell reporter that expressed the most common allelic variant in the human population (THP-1 R232, available from InvivoGen). Alternatively, the TMEM173 gene was knocked out to provide a congenic control to counter-screen for compound activation that was independent of the STING protein (THP-1 STING KO).
Once cell lines were established, reporter assay protocols were developed and optimized to screen small molecule compounds for agonist activity. Assay optimization for efficacy and Z′ value included titration of the following parameters:
• 1. Cell pre-activation with PMA • 2. Cell seeding density • 3. DMSO tolerance • 4. Media selection • 5. FBS concentration • 6. Incubation time • 7. Co-Assessment of cell viability by CTG assay • 8. Appropriate HPE and ZPE controls • 9. Dose Response Titration Final Assay SOP Conditions • 1. No pre-activation with PMA • 2. 5×10^4 cells/well in 96 well plate format • 3. <0.5% DMSO • 4. […] 10% FBS • 6. 14-18 hr incubation • 7. Cell Titer Glo reagent (Promega) following supernatant removal • 8.

Chain of hSTING-CTD (Q86WV6 135-379): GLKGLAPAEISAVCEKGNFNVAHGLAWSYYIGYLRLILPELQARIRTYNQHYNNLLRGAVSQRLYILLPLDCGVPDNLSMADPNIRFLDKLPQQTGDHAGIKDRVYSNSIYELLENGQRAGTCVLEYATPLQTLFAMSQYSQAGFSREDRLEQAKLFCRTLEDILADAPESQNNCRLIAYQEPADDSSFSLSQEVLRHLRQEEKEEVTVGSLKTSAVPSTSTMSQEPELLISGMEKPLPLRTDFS

O=C(O)Cn1c2ccc(-c3ccccc3)cc2c(=O)c2ccc(Cl)c(Cl)c21 [Compound 125]
pIC50 (hSTING-CTD): > 4.00
pIC50 (hSTING-WT): 4.00 to 4.70
MOUSE DSF_6xHIS-SUMO Tm Shift (° C.) (mSTING-R232): B (“B” = 0-5° C.)
WT_DSF_hSWAT Tm Shift (° C.) (hSTING-R232): C (“C” = 2-7° C,)
Emax (STING protein): < 5%

Cc1ccccc1CCc1ccc2c(c1)c(=O)c1ccccc1n2CC(=O)O [Compound 74]
pIC50 (hSTING-CTD): 3.30 to 4.00

O=C(O)Cn1c2cc(-c3ccccc3)ccc2c(=O)c2ccc(Cl)c(Cl)c21 [Compound 65]
pIC50 (hSTING-CTD): > 4.00

CC(C)c1cccc2c1c(=O)c1ccc(Cl)c(Cl)c1n2CC(=O)O [Compound 55]
pIC50 (hSTING-CTD): 3.00 to 3.30

O=C(O)Cn1c2ccc(CCc3ccccc3)cc2c(=O)c2ccc(Cl)c(Cl)c21 [Compound 88]
pIC50 (hSTING-CTD): 3.30 to 4.00

O=C(O)Cn1c2ccccc2c(=O)c2ccc(Cl)c(F)c21 [Compound 84]
pIC50 (hSTING-CTD): < 3.00

O=C(O)Cn1c2cc(C3=CCCC3)ccc2c(=O)c2ccc(Cl)c(Cl)c21 [Compound 114]
pIC50 (hSTING-CTD): > 4.00

O=C(O)Cn1c2ccccc2c(=O)c2c(Cl)ccc(Cl)c21 [Compound 56]
pIC50 (hSTING-CTD): 3.00 to 3.30

CC(C)c1ccc(-c2ccc3c(=O)c4ccc(Cl)c(Cl)c4n(CC(=O)O)c3c2)cc1 [Compound 91]
pIC50 (hSTING-CTD): > 4.00

COc1cccc(CCc2ccc3c(c2)c(=O)c2ccccc2n3CC(=O)O)c1 [Compound 43]
pIC50 (hSTING-CTD): 3.00 to 3.30

O=C(O)Cn1c2cc(F)ccc2c(=O)c2ccc(Cl)c(Cl)c21 [Compound 30]
pIC50 (hSTING-CTD): < 3.00

O=C(O)Cn1c2ccccc2c(=O)c2ccc(F)c(Cl)c21 [Compound 83]
pIC50 (hSTING-CTD): < 3.00

O=C(O)Cn1c2cc(Br)ccc2c(=O)c2ccc(Cl)c(Cl)c21 [Compound 79]
pIC50 (hSTING-CTD): 3.30 to 4.00

Cc1ccc2c(c1)c(=O)c1ccc(Cl)c(Cl)c1n2CC(=O)O [Compound 121]
pIC50 (hSTING-CTD): 3.00 to 3.30

Cc1ccc2c(c1C)c(=O)c1ccc(Cl)c(Cl)c1n2CC(=O)O [Compound 96]
pIC50 (hSTING-CTD): 3.30 to 4.00

Cc1ccc2c(=O)c3cc(-c4ccc(C(C)C)cc4)ccc3n(CC(=O)O)c2c1 [Compound 77]
pIC50 (hSTING-CTD): 3.30 to 4.00

CCNc1ccc2c(=O)c3ccc(Cl)c(Cl)c3n(CC(=O)O)c2c1 [Compound 123]
pIC50 (hSTING-CTD): > 4.00

CC1(C)CCC=C(c2ccc3c(c2)c(=O)c2ccccc2n3CC(=O)O)C1 [Compound 73]
pIC50 (hSTING-CTD): 3.30 to 4.00

O=C(O)Cn1c2ccc(Br)cc2c(=O)c2ccc(Cl)c(Cl)c21 [Compound 89]
pIC50 (hSTING-CTD): 3.30 to 4.00

O=C(O)Cn1c2ccccc2c(=O)c2ccc(Br)c(Cl)c21 [Compound 52]
pIC50 (hSTING-CTD): 3.30 to 4.00

N#Cc1ccc2c(=O)c3ccccc3n(CC(=O)O)c2c1Cl [Compound 107]
pIC50 (hSTING-CTD): > 4.00

Cc1cc(Cl)c2c(c1)c(=O)c1ccc(C)cc1n2CC(=O)O [Compound 38]
pIC50 (hSTING-CTD): 3.00 to 3.30

Cc1ccc2c(=O)c3ccc(Cl)c(Br)c3n(CC(=O)O)c2c1 [Compound 112]
pIC50 (hSTING-CTD): > 4.00
pIC50 (hSTING-WT): 4.00 to 4.70
MOUSE DSF_6xHIS-SUMO Tm Shift (° C.) (mSTING-R232): C (“C” = 5-15° C.)
WT_DSF_hSWAT Tm Shift (° C.) (hSTING-R232): B (“B” = 0-2° C.)
Emax (STING protein): 5 to 25%

O=C(O)Cn1c2cc(NC3CCCCCC3)ccc2c(=O)c2ccc(Cl)c(Cl)c21 [Compound 122]
pIC50 (hSTING-CTD): > 4.00
pIC50 (hSTING-WT): 4.00 to 4.70
MOUSE DSF_6xHIS-SUMO Tm Shift (° C.) (mSTING-R232): D (“D” > 15° C.)
WT_DSF_hSWAT Tm Shift (° C.) (hSTING-R232): C (“C” = 2-7° C,)
Emax (STING protein): > 50%

O=C(O)Cn1c2ccccc2c(=O)c2cc(/C=C\c3ccccc3)ccc21 [Compound 80]
pIC50 (hSTING-CTD): 3.30 to 4.00

COc1c(Cl)ccc2c(=O)c3ccc(C4CCNCC4)cc3n(CC(=O)O)c12 [Compound 226]
pIC50 (hSTING-CTD): < 3.00
pIC50 (hSTING-WT): 3.52 to 4.00
WT_DSF_hSWAT Tm Shift (° C.) (hSTING-R232): C (“C” = 2-7° C,)

O=C(O)Cn1c2ccccc2c(=O)c2cc(Cl)cc(Cl)c21 [Compound 58]
pIC50 (hSTING-CTD): < 3.00

Cc1cc2c(=O)c3ccc(Cl)c(Cl)c3n(CC(=O)O)c2cc1N1CCCCC1 [Compound 62]
pIC50 (hSTING-CTD): < 3.00

O=C(O)Cn1c2ccccc2c(=O)c2cc(C#CC3CCCCC3)ccc21 [Compound 39]
pIC50 (hSTING-CTD): 3.30 to 4.00

CC(C)c1ccc(-c2ccc3c(c2)c(=O)c2ccc(Cl)c(Cl)c2n3CC(=O)O)cc1 [Compound 72]
pIC50 (hSTING-CTD): > 4.00

O=C(O)Cn1c2cccc(F)c2c(=O)c2ccc(Cl)c(Cl)c21 [Compound 31]
pIC50 (hSTING-CTD): 3.00 to 3.30

Cc1cc2c(=O)c3ccc(Cl)c(Cl)c3n(CC(=O)O)c2cc1N1CCOCC1 [Compound 63]
pIC50 (hSTING-CTD): 3.30 to 4.00

CC(C)c1ccc(-c2cccc3c2c(=O)c2ccc(Cl)c(Cl)c2n3CC(=O)O)cc1 [Compound 54]
pIC50 (hSTING-CTD): 3.30 to 4.00

Cc1ccc2c(=O)c3cc(Br)ccc3n(CC(=O)O)c2c1 [Compound 78]
pIC50 (hSTING-CTD): < 3.00

O=C(O)Cn1c2ccccc2c(=O)c2ccc(Cl)c(Br)c21 [Compound 51]
pIC50 (hSTING-CTD): 3.30 to 4.00

O=C(O)Cn1c2cc(NC3CCCC3)ccc2c(=O)c2ccc(Cl)c(Cl)c21 [Compound 118]
pIC50 (hSTING-CTD): > 4.00

O=C(O)CN1c2ccccc2Cc2cc(CCC3CCCCC3)ccc21 [Compound 90]
pIC50 (hSTING-CTD): 3.00 to 3.30

COCc1c(Cl)ccc2c(=O)c3ccccc3n(CC(=O)O)c12 [Compound 229]
pIC50 (hSTING-CTD): > 4.00
pIC50 (hSTING-WT): < 3.52
WT_DSF_hSWAT Tm Shift (° C.) (hSTING-R232): B (“B” = 0-2° C.)
Emax (STING protein): < 5%

CC(C)c1ccc(-c2ccc3c(c2)c(=O)c2ccccc2n3CC(=O)O)cc1 [Compound 41]
pIC50 (hSTING-CTD): > 4.00

O=C(O)Cn1c2ccccc2c(=O)c2cc(CCC3CCCCC3)ccc21 [Compound 40]
pIC50 (hSTING-CTD): > 4.00

CC(C)(C)c1ccc2c(=O)c3ccc(Cl)c(OC4CCC4)c3n(CC(=O)O)c2c1 [Compound 228]
pIC50 (hSTING-CTD): < 3.00
pIC50 (hSTING-WT): 4.00 to 4.70
WT_DSF_hSWAT Tm Shift (° C.) (hSTING-R232): C (“C” = 2-7° C,)
Emax (STING protein): < 5%

O=C(O)Cn1c2ccccc2c(=O)c2c(Cl)c(Cl)ccc21 [Compound 48]
pIC50 (hSTING-CTD): < 3.00
